Measurements reported in patent US20250120946A1, “USE OF PYRROLE COMPOUND IN TREATMENT OF TUMORS” (NANJING SHIJIANG MEDICINE TECHNOLOGY CO., LTD, priority 2021, published 2025).
Read-outs that look alike come from different tables or passages of the source.

Legend:
[1] = test system: CFPAC-1 (human pancreatic cancer cell); assay: Cell viability, Promega CellTiter-Glo kit (intracellular ATP), CFPAC-1; format: cell-based; conditions: insensitive group, 3-4 days of culture, n=3, read-out: IC50 (50% inhibiting concentration), inhibitory effect on cell line
Method: (§1) In the experiment, the IC50 value of sunitinib or sunitinib malate on various tumor cell lines was determined.
(§2) After 3-4 days of culture, the relevant IC50 (50% inhibiting concentration) was measured (n=3).

[2] = test system: NNMT protein-overexpressing NCI-H82 cell (NCI-H82 (ov-NNMT)); assay: Cell viability, Promega CellTiter-Glo kit, NNMT protein-overexpressing NCI-H82 cell; format: cell-based, human; conditions: n=3
Excerpt: (§3) The NNMT protein-overexpressing NCI-H82 cell (NCI-H82 (ov-NNMT)) was obtained by inserting the NNMT gene into NCI-H82 cell using a viral vector. The control NCI-H82 cell (NCI-H82 (Con)) was obtained by transfecting NCI-H82 cell with empty virus vector without carrying NNMT gene.

[3] = test system: NCI-H82 (human small cell lung cancer cell); assay: Cell viability, Promega CellTiter-Glo kit (intracellular ATP), NCI-H82; format: cell-based; conditions: sensitive group, 3-4 days of culture, n=3, read-out: IC50 (50% inhibiting concentration), inhibitory effect on cell line
Method: as §1

[4] = test system: GB-1 (human glioblastoma cell); assay: Cell viability, Promega CellTiter-Glo kit (intracellular ATP), GB-1; format: cell-based; conditions: insensitive group, 3-4 days of culture, n=3, read-out: IC50 (50% inhibiting concentration), inhibitory effect on cell line
Method: as §1, §2

[5] = test system: SW48 (human colon adenocarcinoma cell); assay: Cell viability, Promega CellTiter-Glo kit (intracellular ATP), SW48; format: cell-based; conditions: sensitive group, 3-4 days of culture, n=3, read-out: IC50 (50% inhibiting concentration), inhibitory effect on cell line
Method: as §1, §2

[6] = test system: control NCI-H82 cell (NCI-H82 (Con)); assay: Cell viability, Promega CellTiter-Glo kit, control NCI-H82 cell; format: cell-based, human; conditions: n=3
Excerpt: as §3

[7] = test system: G-401 (human renal carcinoma Wilms cell); assay: Cell viability, Promega CellTiter-Glo kit (intracellular ATP), G-401; format: cell-based; conditions: sensitive group, 3-4 days of culture, n=3, read-out: IC50 (50% inhibiting concentration), inhibitory effect on cell line
Method: as §1, §2

[8] = test system: WSU-DLCL2 (human diffuse large B-cell lymphoma); assay: Cell viability, Promega CellTiter-Glo kit (intracellular ATP), WSU-DLCL2; format: cell-based; conditions: sensitive group, 3-4 days of culture, n=3, read-out: IC50 (50% inhibiting concentration), inhibitory effect on cell line
Method: as §1, §2

[9] = test system: 786-O (clear cell renal cell adenocarcinoma cell); assay: Cell viability, Promega CellTiter-Glo kit (intracellular ATP), 786-O; format: cell-based, human; conditions: insensitive group, 3-4 days of culture, n=3, read-out: IC50 (50% inhibiting concentration), inhibitory effect on cell line
Method: as §1, §2

[10] = test system: MDA-MB-453 (breast cancer cell); assay: Cell viability, Promega CellTiter-Glo kit (intracellular ATP), MDA-MB-453; conditions: sensitive group, 3-4 days of culture, n=3
[11] = test system: SF126 (human glioblastoma multiforme cell); assay: Cell viability, Promega CellTiter-Glo kit (intracellular ATP), SF126; format: cell-based; conditions: insensitive group, 3-4 days of culture, n=3, read-out: IC50 (50% inhibiting concentration), inhibitory effect on cell line
Method: as §1, §2

Question: Which results are given for `CCN(CC)CCNC(=O)c1c(C)[nH]c(/C=C2\C(=O)Nc3ccc(F)cc32)c1C` [Sunitinib malate, sunitinib malate]?
Answer: IC50 ([1]; CFPAC-1): 16.8 µM; IC50 ([2]; NCI-H82 with NNMT gene inserted via viral vector (NNMT protein overexpressed)): 3.31 µM; IC50 ([3]; NCI-H82): 1290 nM; IC50 [4]: 12.1 µM; IC50 ([5]; SW48): 1470 nM; IC50 ([6]; NCI-H82 transfected with empty virus vector without NNMT gene): 1210 nM; IC50 ([7]; G-401): 2500 nM; IC50 ([8]; WSU-DLCL2): 1110 nM; IC50 ([9]; 786-O): 17.8 µM; IC50 ([10]; read-out: IC50 (50% inhibiting concentration), inhibitory effect on cell line, MDA-MB-453): 2330 nM; IC50 ([11]; SF126): 12.4 µM

Question: How did the IC50 ([1]; Homo sapiens, CFPAC-1, CFPAC-1) turn out when `CCN(CC)CCNC(=O)c1c(C)[nH]c(/C=C2\C(=O)Nc3ccc(F)cc32)c1C` [Sunitinib, sunitinib] was run?
Answer: 19.6 µM

Question: What about the IC50 ([2]; Homo sapiens, NCI-H82, NCI-H82 with NNMT gene inserted via viral vector (NNMT protein overexpressed)) of the same compound?
Answer: 2.96 µM

Question: What about the IC50 ([3]; Homo sapiens, NCI-H82, NCI-H82) of the same compound?
Answer: 1300 nM

Question: What about the IC50 ([4]; Homo sapiens) of the same compound?
Answer: 10.7 µM

Question: And the IC50 ([5]; Homo sapiens, SW48, SW48)?
Answer: 1150 nM

Question: What about the IC50 ([6]; Homo sapiens, NCI-H82, NCI-H82 transfected with empty virus vector without NNMT gene) of the same compound?
Answer: 1240 nM

Question: And the IC50 ([7]; Homo sapiens, G-401, G-401)?
Answer: 2910 nM

Question: And the IC50 ([8]; Homo sapiens, WSUDLCL2, WSU-DLCL2)?
Answer: 1340 nM

Question: What about the IC50 ([9]; Homo sapiens, 786-0, 786-O) of the same compound?
Answer: 23.7 µM

Question: What about the IC50 ([10]; Homo sapiens, MDA-MB-453, read-out: IC50 (50% inhibiting concentration), inhibitory effect on cell line, MDA-MB-453) of the same compound?
Answer: 2470 nM

Question: What about the IC50 ([11]; Homo sapiens, SF-126, SF126) of the same compound?
Answer: 11.4 µM
